SMILES strings stand for the structures.

The target in this experiment is Beta-2 adrenergic receptor (Homo sapiens, UniProt P07550). Kind of experiment: Displacement of [3H]-CGP12,177 from immobilized Halo tag-fused beta2 adrenoceptor (unknown origin) expressed in Escherichia coli BL21 (DE3). For orientation: Loss of bound radioactivity is the signal in a displacement assay; it reports binding, not function.
Sequence of Beta-2 adrenergic receptor (P07550 whole entry, the tested form may be a part): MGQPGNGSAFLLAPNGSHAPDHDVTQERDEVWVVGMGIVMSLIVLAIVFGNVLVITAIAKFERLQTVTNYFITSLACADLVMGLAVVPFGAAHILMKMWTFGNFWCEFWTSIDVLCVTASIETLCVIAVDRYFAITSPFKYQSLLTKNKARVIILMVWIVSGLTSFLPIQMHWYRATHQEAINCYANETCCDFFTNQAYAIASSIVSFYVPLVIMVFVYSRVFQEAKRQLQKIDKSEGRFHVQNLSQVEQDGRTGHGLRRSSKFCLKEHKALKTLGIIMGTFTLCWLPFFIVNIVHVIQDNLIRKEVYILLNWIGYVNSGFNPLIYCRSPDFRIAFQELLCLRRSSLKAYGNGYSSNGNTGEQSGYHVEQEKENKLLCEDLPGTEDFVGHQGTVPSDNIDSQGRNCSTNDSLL

The Kd is the concentration at which binding is half-saturated. Low values mean a tighter complex, high ones a looser complex. In the case of `CNC(C)Cc1ccccc1OC` (stereo unspecified) [Methoxyphenamine], the affinity, expressed as Kd, was 2.1 nM.

The record behind these values is BindingDB's records for PubMed 35671625 (Northwest University, 2022).
